These results are taken from patent US9957264B2 (Merck Sharp & Dohme Corp., priority 2013, dated 2018).

Each structure is given as a SMILES string.

One may read the IC50 as the point on the concentration scale where inhibition reaches its midpoint.

Test [1] has as its target JAK1 (recombinant purified GST-tagged catalytic domain) (Homo sapiens (Human), UniProt P23458). The experiment in a line: Jak Biochemical HTRF Assay (JAK1). To be noted: [ATP] 31.8 μM. The protocol: (§1) Jak Biochemical HTRF Assay Protocol
The ability of compounds to inhibit the activity of JAK1, JAK2, JAK3, and Tyk2 was measured using a recombinant purified GST-tagged catalytic domain for each enzyme (Invitrogen JAK1 #M4290, JAK2 #M4290, JAK3 #M4290, Tyk2 #M4290) in an HTRF format biochemical assay. The reactions employed a common peptide substrate, LCB-[…]-NH2 (in-house). The basic assay protocol is as follows: First, 250 nL of diluted compounds in DMSO were dispensed into the wells of a dry 384-well Black plate (Greiner #781076) using a Labcyte Echo 555 acoustic dispenser. Subsequent reagent additions employed an Agilent Bravo. […] After equilibration, 2 μL of 10×ATP in 1× assay buffer was added to initiate the kinase reaction and the plates were shaken and then incubated at room temperature for 120 minutes. At the end of the incubation, 20 μL of 2× stop buffer (streptavidin-Dylight 650 (Thermo #84547B/100 mL), Eu-tagged pY20 antibody (Perkin Elmer #AD0067), EDTA, HEPES, and Triton) was added to quench the reaction. Plates were shaken and centrifuged and then incubated 60 minutes at room temperature and then read on a Perkin Elmer Envision (λex=337 nm, λem=665 and 615 nm, TRF delay time=20 μs). HTRF signal=10,000*665 nm reading/615 nm reading. After normalization to untreated controls, the percent inhibition of the HTRF signal at each compound concentration was calculated. The plot of percent inhibition versus the log of compound concentration was fit with a 4-parameter dose response equation to calculate IC50 values.
(§2) Final reaction conditions were:
Examples of the instant invention were evaluated in JAK1 and JAK2 in vitro binding assays as described above. The following table tabulates the JAK1 IC50 values and JAK2 IC50 values disclosed for the instant invention.

Test [2] addresses JAK2 (recombinant purified GST-tagged catalytic domain) (Homo sapiens (Human), UniProt O60674). The experiment in a line: Jak Biochemical HTRF Assay (JAK2). The settings on record: [ATP] 8.5 μM. The protocol: as §1
The ability of compounds to inhibit the activity of JAK1, JAK2, JAK3, and Tyk2 was measured using a recombinant purified GST-tagged catalytic domain for each enzyme (Invitrogen JAK1 #M4290, JAK2 #M4290, JAK3 #M4290, Tyk2 #M4290) in an HTRF format biochemical assay. […] The basic assay protocol is as follows: First, 250 nL of diluted compounds in DMSO were dispensed into the wells of a dry 384-well Black plate (Greiner #781076) using a Labcyte Echo 555 acoustic dispenser. Subsequent reagent additions employed an Agilent Bravo. […] After equilibration, 2 μL of 10×ATP in 1× assay buffer was added to initiate the kinase reaction and the plates were shaken and then incubated at room temperature for 120 minutes. […] Plates were shaken and centrifuged and then incubated 60 minutes at room temperature and then read on a Perkin Elmer Envision (λex=337 nm, λem=665 and 615 nm, TRF delay time=20 μs). HTRF signal=10,000*665 nm reading/615 nm reading. After normalization to untreated controls, the percent inhibition of the HTRF signal at each compound concentration was calculated. The plot of percent inhibition versus the log of compound concentration was fit with a 4-parameter dose response equation to calculate IC50 values.
as §2
Examples of the instant invention were evaluated in JAK1 and JAK2 in vitro binding assays as described above.
On the technique in general: Time-resolved FRET reads energy transfer from a long-lived donor to a nearby acceptor.

Chain of JAK1 (recombinant purified GST-tagged catalytic domain) (P23458 875-1153): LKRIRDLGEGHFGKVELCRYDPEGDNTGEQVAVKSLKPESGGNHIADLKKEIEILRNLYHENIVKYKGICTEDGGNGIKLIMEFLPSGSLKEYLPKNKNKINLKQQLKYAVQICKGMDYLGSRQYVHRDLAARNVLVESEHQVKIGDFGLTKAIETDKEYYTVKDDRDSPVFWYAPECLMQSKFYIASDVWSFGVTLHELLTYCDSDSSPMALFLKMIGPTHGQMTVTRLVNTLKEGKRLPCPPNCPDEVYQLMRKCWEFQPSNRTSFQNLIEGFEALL
Chain of JAK2 (recombinant purified GST-tagged catalytic domain) (O60674 849-1124): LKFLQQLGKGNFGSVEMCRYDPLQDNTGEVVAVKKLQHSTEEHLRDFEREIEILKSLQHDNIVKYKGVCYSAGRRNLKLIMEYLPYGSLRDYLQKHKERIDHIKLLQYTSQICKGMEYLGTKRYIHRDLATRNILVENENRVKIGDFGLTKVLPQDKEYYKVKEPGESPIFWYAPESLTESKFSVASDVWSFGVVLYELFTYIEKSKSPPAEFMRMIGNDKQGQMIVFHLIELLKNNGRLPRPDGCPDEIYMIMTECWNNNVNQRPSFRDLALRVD

Turning to `N#CC[C@]1(n2nc(Nc3ccc(OC(F)(F)F)cc3)c3c(=O)[nH]ccc32)CC[C@@H](NC2CCCCC2)CC1` [Example 18-20, Cis 2-(4-(cyclohexylamino)-1-(4-oxo-3-((4-(trifluoromethoxy)phenyl)amino)-4,5-dihydro-1H-pyrazolo[4,3-c]pyridin-1-yl)cyclohexyl)acetonitrile], the 50% inhibitory concentration (IC50) in test [1] was 52.2 nM; in test [2], above 1500 nM.
On the same counts, the results for `CC(C)(C)OC(=O)N1CC(CC#N)(n2nc(Nc3ccc(F)cc3)c3c(=O)[nH]ccc32)C1` [Example 4-3, tert-butyl 3-(cyanomethyl)-3-(3-((4-fluorophenyl)amino)-4-oxo-4,5-dihydro-1H-pyrazolo[4,3-c]pyridin-1-yl)azetidine-1-carboxylate] are 2.64 nM and 36 nM.
Regarding `CN(C)S(=O)(=O)c1ccc(Nc2nn(C3(CC#N)CCN(C(=O)c4cccc(Cl)c4)CC3)c3cc[nH]c(=O)c23)cc1` [Example 9-14, 4-[(1-{1-[(3-chlorophenyl)carbonyl]-4-(cyanomethyl)piperidin-4-yl}-4-oxo-4,5-dihydro-1H-pyrazolo[4,3-c]pyridin-3-yl)amino]-N,N-dimethylbenzenesulfonamide], the results for the concentration for half-maximal inhibition (IC50) in test [1] and in test [2] were 0.23 nM and 1.96 nM, respectively.
For the molecule `CN(C)S(=O)(=O)c1ccc(Nc2nn(C3(CC#N)CCN(C(=O)C4CC(F)(F)C4)CC3)c3cc[nH]c(=O)c23)cc1` [Example 9-7, 4-[(1-{4-(cyanomethyl)-1-[(3,3-difluorocyclobutyl)carbonyl]piperidin-4-yl}-4-oxo-4,5-dihydro-1H-pyrazolo[4,3-c]pyridin-3-yl)amino]-N,N-dimethylbenzenesulfonamide], the IC50 in test [1] is 0.09 nM; in test [2], 0.51 nM.
`CN(C)S(=O)(=O)c1ccc(Nc2nn(C3(CC#N)CCN(Cc4cccc5[nH]ccc45)CC3)c3cc[nH]c(=O)c23)cc1` [Example 8-16, 4-({1-[4-(cyanomethyl)-1-(1H-indol-4-ylmethyl)piperidin-4-yl]-4-oxo-4,5-dihydro-1H-pyrazolo[4,3-c]pyridin-3-yl}amino)-N,N-dimethylbenzenesulfonamide]: the IC50 in test [1] worked out at 1.54 nM.
For `CN(C)S(=O)(=O)c1ccc(Nc2nn(C3(CC#N)CCCCC3)c3cc[nH]c(=O)c23)cc1` [Example 5-79, 4-(1-(1-(cyanomethyl)cyclohexyl)-4-oxo-4,5-dihydro-1H-pyrazolo[4,3-c]pyridin-3-ylamino)-N,N-dimethylbenzene-sulfonamide], in test [1], the 50% inhibitory concentration (IC50) came to 0.78 nM.
The same measure, in the same setting: next, `CC(C)NS(=O)(=O)c1ccc(Nc2nn(C3(CC#N)CCN(C(=O)OC(C)(C)C)CC3)c3cc[nH]c(=O)c23)cc1` [Example 5-288, tert-butyl 4-(cyanomethyl)-4-(3-((4-(N-isopropylsulfamoyl)phenyl)amino)-4-oxo-4,5-dihydro-1H-pyrazolo[4,3-c]pyridin-1-yl)piperidine-1-carboxylate]: 0.15 nM.
The same measure, in the same setting: for `CN(C)S(=O)(=O)c1ccc(Nc2nn(C3(CC#N)CCN(C(=O)OC4CCOCC4)CC3)c3cc[nH]c(=O)c23)cc1` [Example 11-7, tetrahydro-2H-pyran-4-yl 4-(cyanomethyl)-4-(3-((4-(N,N-dimethylsulfamoyl)phenyl)amino)-4-oxo-4,5-dihydro-1H-pyrazolo[4,3-c]pyridin-1-yl)piperidine-1-carboxylate] the value was 0.18 nM.
Consider `Cc1cc(Nc2nn([C@]3(CC#N)CC[C@@H](C(=O)OC(C)(C)C)OC3)c3cc[nH]c(=O)c23)ccc1C(=O)N1CCSCC1` [Example 20-6, (2S,5S)-tert-butyl 5-(cyanomethyl)-5-(3-((3-methyl-4-(thiomorpholine-4-carbonyl)phenyl)amino)-4-oxo-4,5-dihydro-1H-pyrazolo[4,3-c]pyridin-1-yl)tetrahydro-2H-pyran-2-carboxylate], for which the IC50 in test [1] stood at 0.13 nM.
`Cc1ccc(CN2CCC(CC#N)(n3nc(Nc4ccc(S(=O)(=O)N(C)C)cc4)c4c(=O)[nH]ccc43)CC2)cc1` [Example 8-2, 4-({1-[4-(cyanomethyl)-1-(4-methylbenzyl)piperidin-4-yl]-4-oxo-4,5-dihydro-1H-pyrazolo[4,3-c]pyridin-3-yl}amino)-N,N-dimethylbenzenesulfonamide]: the IC50 in test [1] was determined as 0.44 nM.
On the same count and under the same terms, next, `Cc1cc(Nc2nn([C@]3(CC#N)CC[C@@H](C(=O)OC(C)(C)C)OC3)c3cc[nH]c(=O)c23)ccc1C(=O)N1CCC(O)(C(F)(F)F)C1` (single isomer, unassigned) [Example 5-160, (2S,5S)-tert-butyl 5-(cyanomethyl)-5-(3-((4-((S or R)-3-hydroxy-3-(trifluoromethyl)pyrrolidine-1-carbonyl)-3-methylphenyl)amino)-4-oxo-4,5-dihydro-1H-pyrazolo[4,3-c]pyridin-1-yl)tetrahydro-2H-pyran-2-carboxylate]: 0.22 nM; `CS(=O)(=O)c1ccc(Nc2nn(C3(CC#N)CCN(c4ccc(I)cn4)CC3)c3cc[nH]c(=O)c23)cc1` [Example 15-7, 2-(1-(5-iodopyridin-2-yl)-4-(3-((4-(methylsulfonyl)phenyl)amino)-4-oxo-4,5-dihydro-1H-pyrazolo[4,3-c]pyridin-1-yl)piperidin-4-yl)acetonitrile]: 0.17 nM; `CC(C)(C)OC(=O)N1CCC(CC#N)(n2nc(Nc3cccc(S(C)(=O)=O)c3)c3c(=O)[nH]ccc32)CC1` [Example 5-13, tert-butyl 4-(cyanomethyl)-4-(3-{[3-(methylsulfonyl)phenyl]amino}-4-oxo-4,5-dihydro-1H-pyrazolo[4,3-c]pyridin-1-yl)piperidine-1-carboxylate]: 0.5 nM.
The same measure, in the same setting: for `CN(C)S(=O)(=O)c1ccc(Nc2nn([C@@]3(CC#N)CCCC[C@H]3F)c3cc[nH]c(=O)c23)cc1` [Example 5-234, 4-({1-[(1R,2R)-1-(cyanomethyl)-2-fluorocyclohexyl]-4-oxo-4,5-dihydro-1H-pyrazolo [4,3-c]pyridin-3-yl}amino)-N,N-dimethyl-benzenesulfonamide] the value was 0.63 nM; for `Cc1cc(Nc2nn([C@]3(CC#N)CC[C@@H](C(=O)OC(C)(C)C)OC3)c3cc[nH]c(=O)c23)ccc1C(=O)N1CCSC(C)C1` (single isomer, unassigned) [Example 5-158, (2S,5S)-tert-butyl 5-(cyanomethyl)-5-(3-((3-methyl-4-((S or R)-2-methylthiomorpholine-4-carbonyl)phenyl)amino)-4-oxo-4,5-dihydro-1H-pyrazolo[4,3-c]pyridin-1-yl)tetrahydro-2H-pyran-2-carboxylate], 0.28 nM; for `CC(C)(C)N1Cc2cc(Nc3nn([C@]4(CC#N)CCCOC4)c4cc[nH]c(=O)c34)ccc2S1(=O)=O` [Example 5-178, [(3S)-3-{3-[(2-tert-butyl-1,1-dioxido-2,3-dihydro-1,2-benzisothiazol-5-yl)amino]-4-oxo-4,5-dihydro-1H-pyrazolo[4,3-c]pyridin-1-yl}tetrahydro-2H-pyran-3-yl] acetonitrile], 0.04 nM.
On the same count and under the same terms, next, `CC(C)(C)OC(=O)[C@@H]1CC[C@@](CC#N)(n2nc(Nc3ccc(Cn4ccnn4)cc3)c3c(=O)[nH]ccc32)CO1` [Example 5-96, (2S,5S)-tert-butyl 5-(3-((4-((1H-1,2,3-triazol-1-yl)methyl)phenyl)amino)-4-oxo-4,5-dihydro-1H-pyrazolo[4,3-c]pyridin-1-yl)-5-(cyanomethyl) tetrahydro-2H-pyran-2-carboxylate]: 0.07 nM.
As to `Cc1cc(Nc2nn([C@]3(CC#N)CC[C@@H](C(=O)OC(C)(C)C)OC3)c3cc[nH]c(=O)c23)ccc1C(=O)N1CCSC(C)C1` (single isomer, unassigned) [Example 5-159, (2S,5S)-tert-butyl 5-(cyanomethyl)-5-(3-((3-methyl-4-((S or R)-2-methylthiomorpholine-4-carbonyl)phenyl)amino)-4-oxo-4,5-dihydro-1H-pyrazolo[4,3-c]pyridin-1-yl)tetrahydro-2H-pyran-2-carboxylate], the 50% inhibitory concentration (IC50) in test [1] was 0.24 nM.
The same measure, in the same setting: for `CN(C)S(=O)(=O)c1ccc(Nc2nn([C@@]3(CC#N)CCCC[C@H]3F)c3cc[nH]c(=O)c23)cc1` [Example 5-84] the value was below 0.02 nM.
